According to ChEMBL document CHEMBL6074717, “Advancing mitochondrial therapeutics: Synthesis and pharmacological evaluation of pyrazole-based inhibitors targeting the mitochondrial pyruvate carrier” (Eur J Med Chem, 2025):
Activity calls are given as the source filed them. No cut-off for these calls is given here.

How the values were obtained:
[1] = Inhibition of mitochondrial pyruvate carrier in C57BL/6J mouse cardiac mitochondria assessed as inhibition of pyruvate/malate-induced mitochondrial respiration by steady-state ADP coupled assay; set-up: species or system Heart
[2] = Kinetic solubility of the compound in PBS at pH 7.4 measured after 24 hrs by LC-MS/MS analysis; format: physicochemical; conditions: for Kinetic_solubility: buffer, pH 7.4, 24 h; for solubility kinetic at 24 h: PBS, pH 7.4, read-out: Kinetic_solubility
[3] = Half life in human liver microsomes at 1 uM in presence of NADPH by LC-MS/MS analysis; format: ADME, Microsome
[4] = Intrinsic clearance in human liver microsomes at 1 uM in presence of NADPH by LC-MS/MS analysis; format: ADME, Microsome
LX-2 [5] = experiment: Inhibition of hepatic stellate cell activation in human LX-2 cells assessed as inhibition of TGF-beta-stimulated ACTA2 gene expression at 10 uM quantitative real-time PCR analysis; format: functional, cell-based
[6] = molecular target: T1, Peroxisome proliferator-activated receptor gamma (Homo sapiens, UniProt P37231); experiment: Agonist activity at Gal4-fused PPAR-gamma (unknown origin) transfected in mouse C2C12 cells assessed as decrease in luciferase activity at 0.2 to 20 uM measured after 24 hrs by Dual-Glo Luciferase assay; format: toxicity, cell-based; conditions: c2c12, 24 h, dose 0.2-20 µM
T1 sequence (P37231 whole entry): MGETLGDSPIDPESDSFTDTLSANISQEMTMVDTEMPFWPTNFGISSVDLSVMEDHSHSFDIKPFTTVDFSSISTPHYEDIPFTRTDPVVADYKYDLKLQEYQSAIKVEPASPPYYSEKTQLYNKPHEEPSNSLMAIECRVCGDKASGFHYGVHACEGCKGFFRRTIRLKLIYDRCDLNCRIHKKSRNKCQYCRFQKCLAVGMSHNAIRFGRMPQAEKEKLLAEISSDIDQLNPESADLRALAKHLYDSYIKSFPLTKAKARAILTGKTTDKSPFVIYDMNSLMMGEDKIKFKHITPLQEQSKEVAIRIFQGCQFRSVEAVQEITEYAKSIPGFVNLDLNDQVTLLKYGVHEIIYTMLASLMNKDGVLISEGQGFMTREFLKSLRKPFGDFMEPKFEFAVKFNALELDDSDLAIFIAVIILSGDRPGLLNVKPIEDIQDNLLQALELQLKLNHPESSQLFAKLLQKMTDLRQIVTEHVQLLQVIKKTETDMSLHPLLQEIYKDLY

LX-2 [7] = experiment: Inhibition of hepatic stellate cell activation in human LX-2 cells assessed as inhibition of TGF-beta-stimulated FN1 gene expression at 10 uM quantitative real-time PCR analysis; format: functional, cell-based
LX-2 [8] = experiment: Inhibition of hepatic stellate cell activation in human LX-2 cells assessed as inhibition of TGF-beta-stimulated […] gene expression at 10 uM quantitative real-time PCR analysis; format: functional, cell-based
[9] = molecular target: T1, Peroxisome proliferator-activated receptor gamma; experiment: Agonist activity at Gal4-fused PPAR-gamma (unknown origin) transfected in mouse C2C12 cells assessed as decrease in luciferase activity at 10 uM measured after 24 hrs by Dual-Glo Luciferase assay; format: toxicity, cell-based; conditions: c2c12, 24 h

| SMILES | EC50 [1] | further results |
| --- | --- | --- |
| CS(=O)(=O)c1ccc(-c2n[nH]cc2/C=C(\C#N)C(=O)O)cc1 | 18300 nM |  |
| CC(C)(C)c1ccc(-c2n[nH]cc2/C=C(\C#N)C(=O)O)cc1 | 447 nM |  |
| N#C/C(=C\c1c[nH]nc1-c1cccc(Cl)c1)C(=O)O | 650 nM |  |
| N#C/C(=C\c1c[nH]nc1-c1cccc2ccccc12)C(=O)O | 273 nM |  |
| N#C/C(=C\c1c[nH]nc1-c1cc(C(F)(F)F)cc(C(F)(F)F)c1)C(=O)O | 165 nM |  |
| Cc1cccc(-c2n[nH]cc2/C=C(\C#N)C(=O)O)c1 | 550 nM |  |
| CCOC(=O)/C(C#N)=C/c1c[nH]nc1-c1ccc(Cl)c(Cl)c1 | 3890 nM | Kinetic_solubility [2]: 4.8 µM; t1/2 [3]: 0.03 h; Intrinsic clearance [4]: 377 µL/min/mg |
| COc1cccc(-c2n[nH]cc2/C=C(\C#N)C(=O)O)c1 | 927 nM |  |
| N#C/C(=C\c1c[nH]nc1-c1ccc(-c2ccccc2)cc1)C(=O)O | 919 nM |  |
| COc1ccc(-c2n[nH]cc2/C=C(\C#N)C(=O)O)c(F)c1 | 659 nM |  |
| N#C/C(=C\c1c[nH]nc1-c1ccc([N+](=O)[O-])cc1)C(=O)O | 4120 nM |  |
| N#C/C(=C\c1c[nH]nc1-c1ccccc1C(F)(F)F)C(=O)O | 258 nM |  |
| N#C/C(=C\c1cn(Cc2ccccc2)nc1-c1ccc2ccccc2c1)C(=O)O | 1290 nM |  |
| N#C/C(=C\c1c[nH]nc1-c1ccc2c(c1)OCO2)C(=O)O | 435 nM |  |
| N#C/C(=C\c1c[nH]nc1-c1ccc(Cl)cc1)C(=O)O | 796 nM |  |
| N#C/C(=C\c1c[nH]nc1-c1ccc(Br)cc1)C(=O)O | 344 nM |  |
| COc1ccc(-c2n[nH]cc2/C=C(\C#N)C(=O)O)cc1OC | 808 nM |  |
| N#C/C(=C\c1cn(Cc2ccccc2)nc1-c1ccc(Cl)c(Cl)c1)C(=O)O | 722 nM |  |
| N#C/C(=C\c1c[nH]nc1-c1cc(Br)cc(Br)c1)C(=O)O | 70 nM | inhibition (LX-2 [5]): Active; Activity [6]: Not_active; Kinetic_solubility [2]: 22 µM; t1/2 [3]: 0.257 h; Intrinsic clearance [4]: 45 µL/min/mg |
| N#C/C(=C\c1c[nH]nc1-c1ccc(Cl)c(Cl)c1)C(=O)O | 107 nM | inhibition (LX-2 [5]): Active; inhibition (LX-2 [7]): Active; inhibition (LX-2 [8]): Active; Activity [6]: Not_active; solubility kinetic at 24 h [2]: ≥ 100 µM; t1/2 [3]: > 2 h; Intrinsic clearance [4]: 3 µL/min/mg |
| N#C/C(=C\c1cn(-c2ccccc2)nc1-c1ccc2ccccc2c1)C(=O)O | 789 nM |  |
| N#C/C(=C\c1cn(-c2ccccc2)c2ccccc12)C(=O)O | 241 nM |  |
| CC(C)(C)OC(=O)/C(C#N)=C/c1c[nH]nc1-c1ccc(Cl)c(Cl)c1 | 8710 nM |  |
| N#C/C(=C\c1c[nH]nc1-c1ccc(Cl)cc1Cl)C(=O)O | 1080 nM |  |

| SMILES | EC50 [1] | further results |
| --- | --- | --- |
| N#C/C(=C\c1c[nH]nc1-c1ccc(F)cc1)C(=O)O | 651 nM |  |
| N#C/C(=C\c1c[nH]nc1-c1ccc(F)c([N+](=O)[O-])c1)C(=O)O | 810 nM |  |
| N#C/C(=C\c1c[nH]nc1-c1ccc(C(F)(F)F)cc1)C(=O)O | 543 nM |  |
| Cc1ccccc1-c1n[nH]cc1/C=C(\C#N)C(=O)O | 659 nM |  |
| N#C/C(=C\c1c[nH]nc1-c1cc2ccccc2s1)C(=O)O | 552 nM |  |
| CCc1ccc(-c2n[nH]cc2/C=C(\C#N)C(=O)O)cc1 | 614 nM |  |
| N#C/C(=C\c1c[nH]nc1-c1ccccc1)C(=O)O | 796 nM |  |
| N#C/C(=C\c1cn(-c2ccccc2)nc1-c1cccc2ccccc12)C(=O)O | 707 nM |  |
| N#C/C(=C\c1cn(-c2ccccc2)nc1-c1ccc(Cl)c(Cl)c1)C(=O)O | 369 nM |  |
| COc1ccc(-c2n[nH]cc2/C=C(\C#N)C(=O)O)cc1 | 795 nM |  |
| CN(CCOc1ccc(CC2SC(=O)NC2=O)cc1)c1ccccn1 (stereo not given) [ROSIGLITAZONE] |  | Activity [9]: Active |
| N#C/C(=C\c1c[nH]nc1-c1cccc(C(F)(F)F)c1)C(=O)O | 108 nM | Activity [6]: Not_active; solubility kinetic at 24 h [2]: ≥ 100 µM; t1/2 [3]: > 2 h; Intrinsic clearance [4]: 3 µL/min/mg |
| N#C/C(=C\c1c[nH]nc1-c1ccccc1Cl)C(=O)O | 516 nM |  |
| N#C/C(=C\c1c[nH]nc1-c1ccccc1F)C(=O)O | 791 nM |  |
| N#C/C(=C\c1c[nH]nc1-c1cc(Cl)ccc1Cl)C(=O)O | 504 nM |  |
| N#C/C(=C\c1c[nH]nc1-c1cccc(F)c1)C(=O)O | 785 nM |  |
| N#C/C(=C\c1c[nH]nc1-c1cccs1)C(=O)O | 374 nM |  |
| N#C/C(=C\c1c[nH]nc1-c1cccc(Br)c1)C(=O)O | 444 nM | Kinetic_solubility [2]: 0.2 µM; t1/2 [3]: > 2 h; Intrinsic clearance [4]: 3 µL/min/mg |
| N#C/C(=C\c1c[nH]nc1-c1ccc2ccccc2c1)C(=O)O | 212 nM | inhibition (LX-2 [5]): Active; inhibition (LX-2 [7]): Active; inhibition (LX-2 [8]): Active; Activity [6]: Not_active; solubility kinetic at 24 h [2]: ≥ 100 µM; t1/2 [3]: 1.15 h; Intrinsic clearance [4]: 10 µL/min/mg |
| COc1ccc(-c2n[nH]cc2/C=C(\C#N)C(=O)O)cc1F | 568 nM |  |
| CC(C)(C)OC(=O)/C(C#N)=C/c1c[nH]nc1-c1cccc(C(F)(F)F)c1 | 12000 nM | Kinetic_solubility [2]: 24.4 µM; t1/2 [3]: > 2 h; Intrinsic clearance [4]: 2 µL/min/mg |
| N#C/C(=C\c1c[nH]nc1-c1cccnc1)C(=O)O | 7770 nM |  |
| COc1ccccc1-c1n[nH]cc1/C=C(\C#N)C(=O)O | 568 nM |  |
| CCn1cc(/C=C(\C#N)C(=O)O)c(-c2ccc(Cl)c(Cl)c2)n1 | 390 nM |  |
